Test systems include EKVX NSCLC; HS 578T breast; KM12 colon; MALME-3M melanoma; RPMI-8226 leukemia; SK-MEL-2 melanoma; SR leukemia.
Holding throughout (experiment): NCI tumour cell line growth inhibition, 48 h

“And” between values parts separate entries of the source, which are not always exact repeats. Identical values can stand only once.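 1) Cells in 96-well plates. 2) Compound, 48 h, 5 concentrations. 3) Linear interpolation between surrounding doses. 4) Unreached endpoint = highest concentration. GI50 = concentration required for 50% inhibition of growth. At the TGI there is no net growth.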

In the case of `CN1C(=O)c2ccccc2NC(=O)C12O[C@@H]2c1cccc(O)c1` (some centres not stated), the TGI with EKVX NSCLC, with HS 578T breast, in the test with KM12 colon, with MALME-3M melanoma, in the test with RPMI-8226 leukemia and with SK-MEL-2 melanoma was more than 100 µM in each case. This compound displayed a TGI in the test with SR leukemia of more than 100 µM.
As for `COc1ccc(OC)c(C(=O)c2oc3ccc(Br)cc3c2N)c1`, the GI50 is 0.403 µM with HS 578T breast; 0.348 µM with KM12 colon; 0.339 µM in the test on MALME-3M melanoma; 0.37 µM in the test with RPMI-8226 leukemia; 0.357 µM with SK-MEL-2 melanoma; 0.193 µM in the test on SR leukemia. For the same compound, the TGI was more than 64.8 µM in the test with HS 578T breast; 18.4 µM in the test on KM12 colon; 46.8 µM with MALME-3M melanoma; 6.51 µM in the test with RPMI-8226 leukemia; 4.34 µM in the test on SK-MEL-2 melanoma; 19.1 µM in the test on SR leukemia.
In the case of `Cc1ccc(NC(=O)NCCCOc2ccc(N3C(N)=NC(N)=NC3(C)C)cc2Cl)cc1S(=O)(=O)F`, the GI50 is 10.9 µM in the test with EKVX NSCLC; 16.7 µM with HS 578T breast; 6.29 µM in the test on KM12 colon; 12 µM with MALME-3M melanoma; 60.7 µM in the test on RPMI-8226 leukemia; 0.724 µM in the test with SR leukemia. Also, the TGI was more than 100 µM in the test with EKVX NSCLC; more than 100 µM in the test on HS 578T breast; more than 100 µM in the test on KM12 colon; 81 µM in the test on MALME-3M melanoma; more than 100 µM with RPMI-8226 leukemia; more than 100 µM with SR leukemia.
With `CCC(=O)c1c(C(F)(F)F)n([O-])c2ccc(C)cc2[n+]1=O`, the GI50 is 1.52 µM in the test on EKVX NSCLC; 4.99 µM in the test with KM12 colon; 12.4 µM with RPMI-8226 leukemia; 8.35 µM with SK-MEL-2 melanoma; 0.675 µM in the test with SR leukemia. The TGI was 6.09 µM in the test on EKVX NSCLC; 14.9 µM in the test with KM12 colon; more than 50 µM with RPMI-8226 leukemia; more than 50 µM in the test on SK-MEL-2 melanoma; more than 50 µM with SR leukemia.
In the case of `COc1ncc(-c2ccc3ncnc(Nc4cccc(Cl)c4)c3c2)cc1NS(=O)(=O)CCN1CCOCC1`, the GI50 was 1.81 µM with KM12 colon, 1.23 µM in the test with RPMI-8226 leukemia and 0.653 µM with SR leukemia. Further, the TGI in the test with KM12 colon, in the test on RPMI-8226 leukemia and in the test on SR leukemia was more than 100 µM throughout.
For the compound `Cc1ccc2[nH]c(C(=O)NN3C(=O)C(C)SC34CCCC(C)C4)c(-c3ccccc3)c2c1` (configuration not stated), the GI50 with EKVX NSCLC is more than 100 µM; in the test with HS 578T breast it was 87.8 µM; in the test on KM12 colon it was 65.6 µM; with MALME-3M melanoma, 69 µM; with RPMI-8226 leukemia, 53.1 µM; in the test on SK-MEL-2 melanoma, more than 100 µM. Further, the TGI with EKVX NSCLC, in the test with HS 578T breast, in the test on KM12 colon, in the test with MALME-3M melanoma, with RPMI-8226 leukemia and in the test with SK-MEL-2 melanoma was more than 100 µM throughout.
As to `COc1ccc(C2SCC(=O)N2NC(=O)Nc2c(C)nc3ccccn23)cc1` (configuration not stated), the GI50 is 63 µM in the test with EKVX NSCLC; 41.3 µM in the test with HS 578T breast; more than 100 µM in the test with KM12 colon; more than 100 µM with RPMI-8226 leukemia; 41.8 µM in the test with SK-MEL-2 melanoma. Moreover, the TGI in the test with EKVX NSCLC, in the test on HS 578T breast, with KM12 colon, with RPMI-8226 leukemia and with SK-MEL-2 melanoma was more than 100 µM in each case.
For `CC1(C)N=C(N)N=C(N)N1c1ccc(OCc2ccc(S(=O)(=O)F)c(Cl)c2)c(Cl)c1`, the GI50 is more than 100 µM in the test on EKVX NSCLC; 3.35 µM in the test with KM12 colon; 1.97 µM in the test with MALME-3M melanoma; more than 100 µM in the test with RPMI-8226 leukemia; more than 100 µM with SK-MEL-2 melanoma; 0.432 µM with SR leukemia. Further, the TGI in the test on EKVX NSCLC, in the test on KM12 colon, in the test with MALME-3M melanoma, in the test on RPMI-8226 leukemia, in the test on SK-MEL-2 melanoma and with SR leukemia was more than 100 µM in each case.
`O=C(O)[C@@H]1CCCCN1Cc1cc2cc3c(cc2c2cc(OCc4ccccc4)ccc12)OCO3`: the GI50 in the test on EKVX NSCLC was 4.42 µM; in the test with HS 578T breast, 2.29 µM; in the test on KM12 colon, 4.24 µM; in the test with MALME-3M melanoma it was 2.8 µM; with RPMI-8226 leukemia, 24 µM; in the test on SK-MEL-2 melanoma, 15.6 µM. The TGI in the test on EKVX NSCLC came to 25.3 µM; in the test on HS 578T breast, 6.94 µM; in the test with KM12 colon it was 25.5 µM; in the test on MALME-3M melanoma, 9.41 µM; with RPMI-8226 leukemia, 77.4 µM; with SK-MEL-2 melanoma it was 37.4 µM.
Regarding `Cn1c2ccccc2c2c3[nH]c(=O)[nH]c(=O)c3c3c4ccccc4n(C)c3c21`, the GI50 with EKVX NSCLC is 2.54 µM; in the test on HS 578T breast, 2.44 µM; with KM12 colon it was 2.51 µM; with MALME-3M melanoma, 2.03 µM; with SK-MEL-2 melanoma, 4.5 µM. The TGI in the test with EKVX NSCLC is 47.2 µM; with HS 578T breast it was 8.21 µM; with KM12 colon, more than 100 µM; in the test with MALME-3M melanoma, 6.14 µM; in the test on SK-MEL-2 melanoma it was 19.7 µM.
For `CON(C)C(=O)N1N=C(c2cc(F)ccc2F)SC1(CCCN)c1ccccc1` (configuration not stated), the GI50 in the test on HS 578T breast was 0.0555 µM and < 0.01 µM; in the test with KM12 colon it was 0.028 µM and < 0.01 µM; with MALME-3M melanoma it was 13.3 µM and 10.5 µM; in the test with RPMI-8226 leukemia, 0.0131 µM and < 0.01 µM; with SK-MEL-2 melanoma it was less than 0.01 µM; in the test with SR leukemia, less than 0.01 µM. In addition, the TGI in the test with HS 578T breast was 17.4 µM and 21.8 µM; in the test on KM12 colon it was 13.5 µM and 12.9 µM; with MALME-3M melanoma, 31.6 µM and 28.3 µM; in the test on RPMI-8226 leukemia, 11 µM and 9.04 µM; in the test on SK-MEL-2 melanoma, 0.561 µM; in the test with SR leukemia, 12.4 µM and 12.6 µM.
With `COc1cc2c(c(OC)c1OC)C(=O)[C@@H]1c3ccc([N+](=O)[O-])cc3C(=O)N(CCCBr)[C@H]21`, the GI50 in the test on EKVX NSCLC was 12.7 µM; in the test on HS 578T breast, 5.71 µM; with KM12 colon, 25.7 µM; in the test on RPMI-8226 leukemia it was 14.8 µM; with SK-MEL-2 melanoma, 19.7 µM; in the test on SR leukemia, 3.92 µM. Further, the TGI is 61.6 µM in the test on EKVX NSCLC; 35.5 µM in the test with HS 578T breast; more than 100 µM in the test on KM12 colon; 91.1 µM in the test on RPMI-8226 leukemia; 59.8 µM in the test on SK-MEL-2 melanoma; more than 100 µM with SR leukemia.

Source of the values: PubChem BioAssay (NCI).
